Experiments:
ECHCG (Barnyardgrass) = experiment: Preemergence herbicidal evaluation; type: in vivo, Echinochloa crus-galli; conditions: preemergence, rated 4-5 weeks after treatment, 0-9 scale
How it was run: (§1)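 Scores (0–9) reflect visual comparison with control plants for stand, vigor, malformation, size and chlorosis. Compound was applied to the soil after sowing, before emergence, as an aqueous acetone spray (about 0.0156–0.500 kg/ha), and cups were kept in a greenhouse for 4–5 weeks.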

ZEAMX (Corn, Field) = experiment: Postemergence herbicidal evaluation; type: in vivo, Zea mays; conditions: for ZEAMX herbicidal rating: postemergence
How it was run: (§2)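 Visual 0-9 injury score (stand, vigor, malformation, size, chlorosis, appearance vs untreated) taken four to five weeks post-spray, averaged across repeat tests. Test plants about two weeks old; foliar spray of acetone/water (1:1) with 0.5% surfactant delivering ~0.0156-0.500 kg active/ha.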

ABUTH (Velvetleaf) = experiment: Preemergence herbicidal evaluation; type: in vivo, Abutilon theophrasti; conditions: preemergence, rated 4-5 weeks after treatment, 0-9 scale
How it was run: as §1

GALAP (Galium) = experiment: Preemergence herbicidal evaluation; type: in vivo, Galium aparine; conditions: preemergence, rated 4-5 weeks after treatment, 0-9 scale
How it was run: as §1

[1] = system: ECHORC (Watergrass (Calif.)); experiment: Postemergence weed control under flooded paddy conditions; type: in vivo, Echinochloa oryzoides; conditions: postemergence weeds
How it was run: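 Weeds 3 to 5 cm tall and rice seedlings at the 1.5 to 2.5 leaf stage were flooded, with water held 1.5 to 3 cm above the soil. Compounds in 50/50 v/v aqueous/acetone went into the flood water at about 0.0313 to 0.500 kg/ha. Visual 0-9 ratings versus control were made 3 to 4 weeks later.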

[2] = system: GLXMAW (Soybean, Williams); experiment: Preemergence herbicidal evaluation; type: in vivo, Glycine max, (L.) Merr. cv Williams; conditions: preemergence, rated 4-5 weeks after treatment, 0-9 scale
How it was run: as §1

AMBEL (Ragweed, Common) [3] = experiment: Preemergence herbicidal evaluation; type: in vivo, Ambrosia artemisifolia; conditions: preemergence, rated 4-5 weeks after treatment, 0-9 scale
How it was run: as §1

[4] = system: GLXMAW (Soybean, Williams); experiment: Postemergence herbicidal evaluation; type: in vivo, Glycine max, (L.) Merr. cv Williams; conditions: for GLXMAW herbicidal rating: postemergence
How it was run: as §2

[5] = system: IPOHE (Morningglory, Ivyleaf); experiment: Postemergence herbicidal evaluation; type: in vivo, Ipomoea hederacea; conditions: for IPOHE herbicidal rating: postemergence
How it was run: as §2

CYPSE (Flatsedge) = experiment: Preemergence weed control under flooded paddy conditions; type: in vivo, Cyperus serotinus; conditions: rated 3-4 weeks after treatment
How it was run: (§3)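 Values are visual 0-9 scores against a control for a preemergence application into paddy flood water at about 0.0313 to 0.500 kg/ha. Greenhouse duration was three to four weeks.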

SETVI (Foxtail, Green) = experiment: Preemergence herbicidal evaluation; type: in vivo, Setaria viridis; conditions: preemergence, rated 4-5 weeks after treatment, 0-9 scale
How it was run: as §1

CASOB (Sicklepod) = experiment: Preemergence herbicidal evaluation; type: in vivo, Cassia obtusifolia; conditions: preemergence, rated 4-5 weeks after treatment, 0-9 scale
How it was run: as §1

AMBEL (Ragweed, Common) [6] = experiment: Postemergence herbicidal evaluation; type: in vivo, Ambrosia artemisifolia; conditions: for AMBEL herbicidal rating: postemergence
How it was run: as §2

[7] = system: SAGPY (Arrowhead (Pygmaea)); experiment: Preemergence weed control under flooded paddy conditions; type: in vivo, Sagittaria pygmaea; conditions: rated 3-4 weeks after treatment
How it was run: as §3

`CCOC(=O)CN1C(=O)C(CC(=O)NO)S/C1=N/c1cc(-n2c(=O)cc(C(F)(F)F)n(C)c2=O)c(F)cc1Cl` (stereo not shown) [Compound 98, Ethyl 2-{{2-chloro-5-[3,6-dihydro-3-methyl-2,6-dioxo-4-(trifluoromethyl)-1(2H)-pyrimidinyl]-4-fluorophenyl}imino}-5-[(hydroxycarbamoyl)methyl]-4-oxo-3-thiazolidineacetate] gave an ECHCG rating (ECHCG (Barnyardgrass); 0.0156 kg/ha) of 0.0, an ECHCG rating (ECHCG (Barnyardgrass); 0.0313 kg/ha) of 0.0 and an ECHCG rating (ECHCG (Barnyardgrass); 0.0625 kg/ha) of 0.0. For the same compound, the ECHCG rating (ECHCG (Barnyardgrass); 0.1250 kg/ha) was 1.0, the ECHCG rating (ECHCG (Barnyardgrass); 0.2500 kg/ha) was 1.0 and the ECHCG rating (ECHCG (Barnyardgrass); 0.5000 kg/ha) was 2.0. For the same compound, the ZEAMX herbicidal rating (ZEAMX (Corn, Field); rate 0.0156 kg/ha) was 3.0, the ZEAMX herbicidal rating (ZEAMX (Corn, Field); rate 0.0313 kg/ha) was 4.0 and the ZEAMX herbicidal rating (ZEAMX (Corn, Field); rate 0.0625 kg/ha) was 4.0. For the same compound, the ZEAMX herbicidal rating (ZEAMX (Corn, Field); rate 0.1250 kg/ha) was 5.0, the ABUTH rating (ABUTH (Velvetleaf); 0.0156 kg/ha) was 0.0 and the ABUTH rating (ABUTH (Velvetleaf); 0.0313 kg/ha) was 0.0. For the same compound, the ABUTH rating (ABUTH (Velvetleaf); 0.0625 kg/ha) was 2.0, the ABUTH rating (ABUTH (Velvetleaf); 0.1250 kg/ha) was 6.0 and the ABUTH rating (ABUTH (Velvetleaf); 0.2500 kg/ha) was 6.0. For the same compound, the ABUTH rating (ABUTH (Velvetleaf); 0.5000 kg/ha) was 9.0, the GALAP rating (GALAP (Galium); 0.0156 kg/ha) was 1.0 and the GALAP rating (GALAP (Galium); 0.0313 kg/ha) was 0.0. The GALAP rating (GALAP (Galium); 0.0625 kg/ha) was 6.0, the GALAP rating (GALAP (Galium); 0.2500 kg/ha) was 7.0 and the GALAP rating (GALAP (Galium); 0.5000 kg/ha) was 7.0. For the same compound, the “Herbicidal rating ECHORC” value ([1]; Rate 0.0313 kg/ha, rated 3 to 4 weeks after treatment) was 0.0, the “Herbicidal rating ECHORC” value ([1]; Rate 0.0625 kg/ha, rated 3 to 4 weeks after treatment) was 0.0 and the “Herbicidal rating ECHORC” value ([1]; Rate 0.1250 kg/ha, rated 3 to 4 weeks after treatment) was 1.0. For the same compound, the “Herbicidal rating ECHORC” value ([1]; Rate 0.2500 kg/ha, rated 3 to 4 weeks after treatment) was 3.0, the GLXMAW rating ([2]; 0.0156 kg/ha) was 0.0 and the GLXMAW rating ([2]; 0.0313 kg/ha) was 0.0. The GLXMAW rating ([2]; 0.0625 kg/ha) was 1.0, the GLXMAW rating ([2]; 0.1250 kg/ha) was 1.0 and the GLXMAW rating ([2]; 0.2500 kg/ha) was 4.0. The GLXMAW rating ([2]; 0.5000 kg/ha) was 5.0, the AMBEL rating (AMBEL (Ragweed, Common) [3]; 0.0156 kg/ha) was 0.0 and the AMBEL rating (AMBEL (Ragweed, Common) [3]; 0.0313 kg/ha) was 0.0. It also gave an AMBEL rating (AMBEL (Ragweed, Common) [3]; 0.0625 kg/ha) of 2.0, an AMBEL rating (AMBEL (Ragweed, Common) [3]; 0.1250 kg/ha) of 3.0 and an AMBEL rating (AMBEL (Ragweed, Common) [3]; 0.2500 kg/ha) of 5.0. The AMBEL rating (AMBEL (Ragweed, Common) [3]; 0.5000 kg/ha) was 7.0, the GLXMAW herbicidal rating ([4]; rate 0.0156 kg/ha) was 4.5 and the GLXMAW herbicidal rating ([4]; rate 0.0313 kg/ha) was 4.5. The GLXMAW herbicidal rating ([4]; rate 0.0625 kg/ha) was 5.5, the GLXMAW herbicidal rating ([4]; rate 0.1250 kg/ha) was 5.5 and the IPOHE herbicidal rating ([5]; rate 0.0156 kg/ha) was 3.0. For the same compound, the IPOHE herbicidal rating ([5]; rate 0.0313 kg/ha) was 3.0, the IPOHE herbicidal rating ([5]; rate 0.0625 kg/ha) was 9.0 and the IPOHE herbicidal rating ([5]; rate 0.1250 kg/ha) was 9.0. For the same compound, the “CYPSE herbicidal effect rating” value (CYPSE (Flatsedge); 0.0313 kg/ha) was 2.0, the “CYPSE herbicidal effect rating” value (CYPSE (Flatsedge); 0.0625 kg/ha) was 3.0 and the “CYPSE herbicidal effect rating” value (CYPSE (Flatsedge); 0.1250 kg/ha) was 4.0. For the same compound, the “CYPSE herbicidal effect rating” value (CYPSE (Flatsedge); 0.2500 kg/ha) was 4.0, the SETVI rating (SETVI (Foxtail, Green); 0.0156 kg/ha) was 0.0 and the SETVI rating (SETVI (Foxtail, Green); 0.0313 kg/ha) was 1.0. It also gave an SETVI rating (SETVI (Foxtail, Green); 0.0625 kg/ha) of 0.0, an SETVI rating (SETVI (Foxtail, Green); 0.1250 kg/ha) of 4.0 and an SETVI rating (SETVI (Foxtail, Green); 0.2500 kg/ha) of 3.0. It also gave an SETVI rating (SETVI (Foxtail, Green); 0.5000 kg/ha) of 7.0, a CASOB rating (CASOB (Sicklepod); 0.0156 kg/ha) of 0.0 and a CASOB rating (CASOB (Sicklepod); 0.0313 kg/ha) of 0.0. It also gave a CASOB rating (CASOB (Sicklepod); 0.0625 kg/ha) of 0.0, a CASOB rating (CASOB (Sicklepod); 0.1250 kg/ha) of 1.0 and a CASOB rating (CASOB (Sicklepod); 0.2500 kg/ha) of 2.0. The CASOB rating (CASOB (Sicklepod); 0.5000 kg/ha) was 7.0, the AMBEL herbicidal rating (AMBEL (Ragweed, Common) [6]; rate 0.0156 kg/ha) was 3.0 and the AMBEL herbicidal rating (AMBEL (Ragweed, Common) [6]; rate 0.0313 kg/ha) was 3.0. It also gave an AMBEL herbicidal rating (AMBEL (Ragweed, Common) [6]; rate 0.0625 kg/ha) of 4.0 and an AMBEL herbicidal rating (AMBEL (Ragweed, Common) [6]; rate 0.1250 kg/ha) of 9.0.

In the case of `CCOC(=O)CN1C(=O)C(CC(=O)OC(C)C)SC1=Nc1cc(-n2c(=O)cc(C(F)(F)F)n(C)c2=O)c(F)cc1Cl` (stereo not shown) [Compound 55, 2-{{2-Chloro-5-[3,6-dihydro-3-methyl-2,6-dioxo-4-(trifluoromethyl)-1(2H)-pyrimidinyl]-4-fluoro-phenyl}imino}-4-oxo-3,5-thiazolidinediacetic acid, 3-ethyl isopropyl ester], the “Postemergence herbicidal rating ZEAMX” value (ZEAMX (Corn, Field); Rate 0.0158 kg/ha) was 7.5, the “Postemergence herbicidal rating ZEAMX” value (ZEAMX (Corn, Field); Rate 0.0313 kg/ha) was 8.3 and the “Postemergence herbicidal rating ZEAMX” value (ZEAMX (Corn, Field); Rate 0.0625 kg/ha) was 8.7. The “Postemergence herbicidal rating ZEAMX” value (ZEAMX (Corn, Field); Rate 0.1250 kg/ha) was 8.8, the “Postemergence herbicidal rating ZEAMX” value (ZEAMX (Corn, Field); Rate 0.2500 kg/ha) was 9.0 and the “Herbicidal rating ECHORC” value ([1]; rate 0.0313 kg/ha, 3-4 weeks after treatment) was 7.0. The “Herbicidal rating ECHORC” value ([1]; rate 0.0625 kg/ha, 3-4 weeks after treatment) was 7.0, the “Herbicidal rating ECHORC” value ([1]; rate 0.1250 kg/ha, 3-4 weeks after treatment) was 7.0 and the “Herbicidal rating ECHORC” value ([1]; rate 0.2500 kg/ha, 3-4 weeks after treatment) was 7.0. The “Postemergence herbicidal rating GLXMAW” value ([4]; Rate 0.0158 kg/ha) was 8.0, the “Postemergence herbicidal rating GLXMAW” value ([4]; Rate 0.0313 kg/ha) was 8.2 and the “Postemergence herbicidal rating GLXMAW” value ([4]; Rate 0.0625 kg/ha) was 8.0. The “Postemergence herbicidal rating GLXMAW” value ([4]; Rate 0.1250 kg/ha) was 8.3, the “Postemergence herbicidal rating GLXMAW” value ([4]; Rate 0.2500 kg/ha) was 8.0 and the “Herbicidal rating SAGPY” value ([7]; 0.0313 kg/ha) was 0.0. For the same compound, the “Herbicidal rating SAGPY” value ([7]; 0.0625 kg/ha) was 0.0, the “Herbicidal rating SAGPY” value ([7]; 0.1250 kg/ha) was 0.0 and the “Herbicidal rating SAGPY” value ([7]; 0.2500 kg/ha) was 0.0. The “Postemergence herbicidal rating IPOHE” value ([5]; Rate 0.0158 kg/ha) was 9.0, the “Postemergence herbicidal rating IPOHE” value ([5]; Rate 0.0313 kg/ha) was 9.0 and the “Postemergence herbicidal rating IPOHE” value ([5]; Rate 0.0625 kg/ha) was 9.0. For the same compound, the “Postemergence herbicidal rating IPOHE” value ([5]; Rate 0.1250 kg/ha) was 9.0, the “Postemergence herbicidal rating IPOHE” value ([5]; Rate 0.2500 kg/ha) was 9.0 and the “Herbicidal rating CYPSE” value (CYPSE (Flatsedge); 0.0313 kg/ha) was 0.0. The “Herbicidal rating CYPSE” value (CYPSE (Flatsedge); 0.0625 kg/ha) was 0.0, the “Herbicidal rating CYPSE” value (CYPSE (Flatsedge); 0.1250 kg/ha) was 0.0 and the “Herbicidal rating CYPSE” value (CYPSE (Flatsedge); 0.2500 kg/ha) was 0.0. For the same compound, the “Postemergence herbicidal rating AMBEL” value (AMBEL (Ragweed, Common) [6]; Rate 0.0158 kg/ha) was 9.0, the “Postemergence herbicidal rating AMBEL” value (AMBEL (Ragweed, Common) [6]; Rate 0.0313 kg/ha) was 9.0 and the “Postemergence herbicidal rating AMBEL” value (AMBEL (Ragweed, Common) [6]; Rate 0.0625 kg/ha) was 9.0. For the same compound, the “Postemergence herbicidal rating AMBEL” value (AMBEL (Ragweed, Common) [6]; Rate 0.1250 kg/ha) was 9.0 and the “Postemergence herbicidal rating AMBEL” value (AMBEL (Ragweed, Common) [6]; Rate 0.2500 kg/ha) was 9.0.

Source: patent US20020137929A1, “1 - (3-heterocyclylphenyl) isothiourea, -isourea, -guanidine and -amidine herbicidal agents” (Intellectual Property Department, BASF Aktiengesellschaft, priority 1998, published 2002)
